Source: PubChem BioAssay (NCI)
Values joined by “and” are separate entries in the source; they are usually repeats but may differ in a detail not shown here. Equal entries are not always repeated.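 Test compounds were applied to cells in 96-well plates for 48 hours at 5 doses. GI50 is the concentration that inhibits growth by half. The concentration for full growth arrest is given as TGI.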

Columns and labels:
Assay in all cases: NCI anticancer screen, dose series, 48 h
[1] = test system: SW-620 colon
[2] = test system: ACHN renal
[3] = test system: HCT-116 colon
[4] = test system: MALME-3M melanoma
[5] = test system: OVCAR-5 ovarian
[6] = test system: M14 melanoma
[7] = test system: CCRF-CEM leukemia
[8] = test system: SNB-19 CNS
[9] = test system: NCI/ADR-RES ovarian
[10] = test system: SK-MEL-5 melanoma

## COc1cc2nc3cc([N+](=O)[O-])ccc3c(NCCNCC(C)(C)O)c2cc1OC
[1]
  GI50: 0.54 µM
  TGI: 4.07 µM
[2]
  GI50: 0.657 µM
  TGI: 4.19 µM
[3]
  GI50: 0.368 µM
  TGI: 1.54 µM
[4]
  GI50: 0.622 µM
  TGI: 1.97 µM
[5]
  GI50: 2.22 µM
  TGI: 8.87 µM
[6]
  GI50: 1.29 µM
  TGI: 3.05 µM
[7]
  GI50: 0.573 µM
  TGI: 5.13 µM
[8]
  GI50: 0.472 µM
  TGI: 2.83 µM
[9]
  GI50: 5.68 µM
  TGI: 20.5 µM

## COC(=O)[C@H]1CCCN1C(=O)[C@H]1CCCN1C(=O)[C@H](Cc1c[nH]c2ccccc12)NC(=S)Nc1cc(C(F)(F)F)cc(C(F)(F)F)c1
[1]
  GI50: 9.18 µM
  TGI: > 100 µM
[2]
  GI50: 4.12 µM
  TGI: > 100 µM
[3]
  GI50: 4.27 µM
  TGI: > 100 µM
[4]
  GI50: 14.9 µM
  TGI: > 100 µM
[5]
  GI50: 2.95 µM
  TGI: 26.8 µM
[6]
  GI50: 7.15 µM
  TGI: 64.1 µM
[7]
  GI50: 7.23 µM
  TGI: > 100 µM
[8]
  GI50: 9.49 µM
  TGI: > 100 µM
[9]
  GI50: > 100 µM
  TGI: > 100 µM
[10]
  GI50: 5.14 µM
  TGI: > 100 µM

## CCOC(=O)COc1ccc2c(C)cc(=O)oc2c1
[1]
  TGI: > 100 µM
[2]
  TGI: > 100 µM
[3]
  TGI: > 100 µM
[4]
  TGI: > 100 µM
[5]
  TGI: > 100 µM
[6]
  TGI: > 100 µM
[7]
  TGI: > 100 µM
[8]
  TGI: > 100 µM
[9]
  TGI: > 100 µM
[10]
  TGI: > 100 µM

## CC(=O)c1c(C)[nH]c(-c2nc3ccc(N4CCN(C)CC4)cc3[nH]2)c1-c1ccccc1
[1]
  GI50: 3.82 µM
  TGI: 24.8 µM
[2]
  GI50: 0.876 µM
  TGI: 12.3 µM
[3]
  GI50: 1.54 µM
  TGI: 17.2 µM
[4]
  GI50: 0.961 µM
  TGI: 12.7 µM
[5]
  GI50: 1.12 µM
  TGI: 22.9 µM
[6]
  GI50: 1.1 µM
  TGI: 19.4 µM
[7]
  GI50: 4.69 µM
  TGI: > 100 µM
[8]
  GI50: 3.03 µM
  TGI: > 100 µM
[9]
  GI50: 2.48 µM
  TGI: > 100 µM
[10]
  GI50: 1.35 µM
  TGI: 10.4 µM

## CSC(=Nc1ccccc1)/N=C(\SCc1ccccc1)N(C)C
[1]
  TGI: 1.83 µM
[2]
  TGI: 2.39 µM
[3]
  TGI: 1.38 µM
[4]
  TGI: 2.65 µM
[5]
  TGI: 2.84 µM
[6]
  TGI: 2.12 µM
[7]
  TGI: > 100 µM
[8]
  TGI: 2.68 µM
[9]
  TGI: 3.77 µM
[10]
  TGI: 2.92 µM

## CC[C@H](C)[C@H](NC(=O)CN(C)C)C(=O)N(C)[C@H](C[C@@H](OC(C)=O)c1nc(C(=O)NC23CC(C(=O)OC)(C2)C3)cs1)C(C)C
[1]
  GI50: 0.163 µM
  TGI: > 25 µM
[2]
  GI50: 2.28 µM
  TGI: > 25 µM
[3]
  GI50: 0.381 µM
  TGI: > 25 µM
[4]
  GI50: > 6.28 µM
  TGI: > 25 µM
[5]
  GI50: > 6.63 µM
  TGI: > 25 µM
[6]
  GI50: 0.0995 µM
  TGI: > 5.78 µM
[7]
  GI50: 0.0932 µM
  TGI: > 25 µM
[8]
  GI50: 0.852 µM
  TGI: > 25 µM
[9]
  GI50: > 21.4 µM
  TGI: > 25 µM
[10]
  GI50: 0.572 µM
  TGI: 4 µM

## CCN(CC)Cc1cc2[nH]c3c4ccc(Cl)cc4ncc3c2cc1OC
[1]
  GI50: 2.3 µM and 1.91 µM
  TGI: 6.72 µM and 4.44 µM
[2]
  GI50: 5.68 µM and 1.98 µM
  TGI: 16.3 µM and 4.98 µM
[3]
  GI50: 1.85 µM and 1.65 µM
  TGI: 5.92 µM and 3.15 µM
[4]
  GI50: 1.72 µM and 1.99 µM
  TGI: 3.33 µM and 3.75 µM
[5]
  GI50: 12.4 µM and 14.5 µM
  TGI: 25.9 µM and 27.5 µM
[6]
  GI50: 1.88 µM
  TGI: 3.59 µM and 3.4 µM
[7]
  GI50: 2.52 µM and 1.8 µM
  TGI: > 19.7 µM and 4.57 µM
[8]
  GI50: 2.63 µM and 3.51 µM
  TGI: 7.51 µM and 11.9 µM
[9]
  GI50: 3.67 µM and 3.31 µM
  TGI: 13.5 µM and 12 µM
[10]
  GI50: 1.61 µM and 1.62 µM
  TGI: 3 µM and 2.98 µM

## COc1cc2c3c(n(C)c(=O)c2cc1OC)-c1ccc(C#N)cc1C3=O
[1]
  GI50: > 100 µM
  TGI: > 100 µM
[2]
  GI50: > 100 µM
  TGI: > 100 µM
[3]
  GI50: > 100 µM
  TGI: > 100 µM
[4]
  GI50: > 100 µM
  TGI: > 100 µM
[5]
  GI50: > 100 µM
  TGI: > 100 µM
[6]
  GI50: > 100 µM
  TGI: > 100 µM
[7]
  GI50: > 100 µM
  TGI: > 100 µM
[8]
  GI50: > 100 µM
  TGI: > 100 µM
[9]
  GI50: > 100 µM
  TGI: > 100 µM
[10]
  GI50: > 100 µM
  TGI: > 100 µM

## CN(C)C(=S)SCC(=O)Nc1ccccc1
[1]
  TGI: > 100 µM
[2]
  TGI: > 100 µM
[3]
  TGI: > 100 µM
[4]
  TGI: > 100 µM
[5]
  TGI: > 100 µM
[6]
  TGI: > 100 µM
[7]
  TGI: > 100 µM
[9]
  TGI: > 100 µM
[10]
  TGI: > 100 µM

## CC1=C(C(=O)Nc2ccc(Cl)c(C(=O)OC(C)C)c2)SCCO1
[1]
  TGI: > 79.4 µM
[2]
  TGI: > 100 µM
[3]
  TGI: > 77.4 µM
[4]
  TGI: 92.2 µM
[5]
  TGI: 75.3 µM
[6]
  TGI: > 100 µM
[7]
  TGI: 65.1 µM
[8]
  TGI: > 77.4 µM
[9]
  TGI: > 91.8 µM
[10]
  TGI: 81.4 µM

## O=C1c2ccccc2C(=O)c2c(OCCOCCO)cccc21
[1]
  TGI: > 100 µM
[2]
  TGI: > 100 µM
[3]
  TGI: > 100 µM
[4]
  TGI: > 100 µM
[5]
  TGI: > 100 µM
[6]
  TGI: > 100 µM
[8]
  TGI: > 100 µM
[9]
  TGI: > 100 µM
[10]
  TGI: > 100 µM

## O=S(=O)(c1cnccc1N1CCN(CCO)CC1)N1CCCC1
[1]
  TGI: > 100 µM
[2]
  TGI: > 100 µM
[3]
  TGI: > 100 µM
[4]
  TGI: > 100 µM
[5]
  TGI: > 100 µM
[6]
  TGI: > 100 µM
[8]
  TGI: > 100 µM
[9]
  TGI: > 100 µM
[10]
  TGI: > 100 µM
